Results from the supplement of paper PMC9938120.

Tests used:
Experiment in all cases: drug sensitivity score (DSS3, normalised partial AUC of % inhibition dose-response) (DSS (score)); higher = more sensitive (stronger inhibition of viability); extreme values may be limits of the assay
FMOC02_2 = patient-derived low-grade serous ovarian cancer cells; details: 72 h; library: FO5A; assay format: 2D, 384-well, CellTiter-Glo
Method in brief: (§1)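 Patient-derived ovarian cancer cells (early passage, under 10) were dispensed onto 384-well flat clear-bottom plates pre-plated with compounds at five concentrations covering a 10,000-fold range. Plates were incubated 72 h at 37 °C, 5% CO2, and viability was read with CellTiter-Glo. Data were processed in Breeze. The drug sensitivity score (DSS3) is a partial area under the percent-inhibition dose-response curve, divided by the log of the upper asymptote; higher means more sensitive.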

FMOC22 = patient-derived mucinous ovarian cancer cells; details: 72 h; library: FO5A; assay format: 2D, 384-well, CellTiter-Glo
Method in brief: as §1

FMOC17 = patient-derived low-grade serous ovarian cancer cells; details: 72 h; library: FO5A; assay format: 2D, 384-well, CellTiter-Glo
Method in brief: as §1

FMOC24 = patient-derived high-grade serous ovarian cancer cells; details: 72 h; library: FO5A; assay format: 2D, 384-well, CellTiter-Glo
Method in brief: as §1

FMOC06 = patient-derived mucinous ovarian cancer cells; details: 72 h; library: FO5A; assay format: 2D, 384-well, CellTiter-Glo
Method in brief: as §1

FMOC25_1 = patient-derived low-grade serous ovarian cancer cells; details: 72 h; library: FO4B; assay format: 2D, 384-well, CellTiter-Glo
Method in brief: as §1

FMOC25_2 = patient-derived low-grade serous ovarian cancer cells; details: 72 h; library: FO5A; assay format: 2D, 384-well, CellTiter-Glo
Method in brief: as §1

FMOC27 = patient-derived low-grade serous ovarian cancer cells; details: 72 h; library: FO5A; assay format: 2D, 384-well, CellTiter-Glo
Method in brief: as §1

FMOC28 = patient-derived low-grade serous ovarian cancer cells; details: 72 h; library: FO5A; assay format: 2D, 384-well, CellTiter-Glo
Method in brief: as §1

FMOC11 = patient-derived high-grade serous ovarian cancer cells; details: 72 h; library: FO5A; assay format: 2D, 384-well, CellTiter-Glo
Method in brief: as §1

FMOC03 = patient-derived mucinous ovarian cancer cells; details: 72 h; library: FO5A; assay format: 2D, 384-well, CellTiter-Glo
Method in brief: as §1

FMOC04 = patient-derived high-grade serous ovarian cancer cells; details: 72 h; library: FO5A; assay format: 2D, 384-well, CellTiter-Glo
Method in brief: as §1

FMOC09 = patient-derived high-grade serous ovarian cancer cells; details: 72 h; library: FO5A; assay format: 2D, 384-well, CellTiter-Glo
Method in brief: as §1

FMOC02_3 = patient-derived low-grade serous ovarian cancer cells; details: 72 h; library: FO5A; assay format: 2D, 384-well, CellTiter-Glo
Method in brief: as §1

FMOC14 = patient-derived high-grade serous ovarian cancer cells; details: 72 h; library: FO5A; assay format: 2D, 384-well, CellTiter-Glo
Method in brief: as §1

FMOC02_1 = patient-derived low-grade serous ovarian cancer cells; details: 72 h; library: FO5A; assay format: 2D, 384-well, CellTiter-Glo
Method in brief: as §1

SMILES | drug sensitivity score (FMOC02_2) | drug sensitivity score (FMOC22) | drug sensitivity score (FMOC17) | drug sensitivity score (FMOC24) | drug sensitivity score (FMOC06) | drug sensitivity score (FMOC25_1) | drug sensitivity score (FMOC25_2) | drug sensitivity score (FMOC27) | drug sensitivity score (FMOC28) | drug sensitivity score (FMOC11) | drug sensitivity score (FMOC03) | drug sensitivity score (FMOC04) | drug sensitivity score (FMOC09) | drug sensitivity score (FMOC02_3) | drug sensitivity score (FMOC14) | drug sensitivity score (FMOC02_1)
O=C(Nc1cc(Cl)cc2c1[nH]c1cnccc12)c1cccnc1 [PS-1145] | 4.6 | 0 | 2.3 | 2.75 | 0.8 | 3.2 | 2.7 | 0.7 | 3 | 0.8 | 0.1 | 0 | 1.1 | 7.2 | 0 | 2.2
CC(=O)c1c(C)c2cnc(Nc3ccc(N4CCNCC4)cn3)nc2n(C2CCCC2)c1=O [Palbociclib] | 4.9 | 0.5 | 0.7 | 2.95 | 2.5 | 2.5 | 5.2 | 1.1 | 3.9 | 1.4 | 2.7 | 0.65 | 0.5 | 6.2 | 1.6 | 3.8
COc1ccc(COc2cc3oc(=O)c4cc(C(C)O)ccc4c3cc2OC)cc1 (centres undefined) [Palomid-529] | 2.2 | 0 | 0 | 0 | 0 | 0 | 0.1 | 0 | 1.4 | 0.4 | 0 | 0 | 0.4 | 0 | 0 | 0
Cc1ccc(Nc2nccc(N(C)c3ccc4c(C)n(C)nc4c3)n2)cc1S(N)(=O)=O [Pazopanib] | 0.4 | 0 | 0 | 3.8 | 0 | 1.1 | 3 | 0.6 | 0 | 0 | 0 | 0 | 0 | 1.5 | 0 | 1.3
OC[C@H]1O[C@@H](n2cnc3c2N=CNC[C@H]3O)C[C@@H]1O [Pentostatin] | 0 | 0 | 0 | 0 | 0 | 0 | 0 | 0 | 0 | 0 | 0 | 0 | 0 | 0 | 0 | 0
CCCCCCCCCCCCCCCCCCOP(=O)([O-])OC1CC[N+](C)(C)CC1 [Perifosine] | 0 | 0 | 0 | 3.35 | 0.1 | 0 | 0.5 | 0 | 0 | 0 | 0 | 0 | 0 | 0 | 0 | 0
FC(F)(F)c1ccc(CNc2ccc(Cc3c[nH]c4ncc(Cl)cc34)cn2)cn1 [Pexidartinib] | 2.5 | 0.3 | 1.4 | 1.3 | 0.9 | 1.6 | 0 | 0 | 0.1 | 2.6 | 0 | 0.1 | 4.1 | 3.1 | 0 | 3.9
CC[C@@H]1C(=O)OC[C@@H]1Cc1cncn1C [Pilocarpine] | 0.3 | 0 | 0 | 2.65 | 0 | 0 | 0 | 0 | 0 | 0 | 0 | 0 | 0 | 0 | 0 | 0
CC(C)N(C[C@H]1O[C@@H](n2cnc3c(N)ncnc32)[C@H](O)[C@@H]1O)[C@H]1C[C@@H](CCc2nc3cc(C(C)(C)C)ccc3[nH]2)C1 [Pinometostat] | 0 | 0 | 0 | 0 | 0 | 0 | 0.2 | 0 | 2.1 | 0 | 0 | 0 | 0 | 0 | 0 | 0
NCCNc1ccc(NCCN)c2c1C(=O)c1ccncc1C2=O [Pixantrone] | 0 | 0 | 0.9 | 0 | 0 | 0.7 | 1.8 | 0 | 1.6 | 1.7 | 0 | 0.2 | 0 | 1.5 | 0 | 0
c1cc(CN2CCCNCCNCCCNCC2)ccc1CN1CCCNCCNCCCNCC1 [Plerixafor] | 0 | 0 | 0 | 0 | 0 | 0 | 0 | 0 | 0 | 0 | 0 | 0 | 0 | 0 | 0 | 0
Nc1cccc2c1C(=O)N(C1CCC(=O)NC1=O)C2=O (centres undefined) [Pomalidomide] | 0 | 0 | 0 | 0 | 0 | 0 | 0 | 0 | 0 | 0 | 0 | 0 | 0 | 0 | 0 | 0
CC[C@H](C)C(=O)O[C@H]1C[C@H](O)C=C2C=C[C@H](C)[C@H](CC[C@@H](O)C[C@@H](O)CC(=O)O)[C@H]21 [Pravastatin] | 0 | 0 | 0 | 0.35 | 0.8 | 0 | 0 | 0 | 0 | 0 | 0 | 0 | 0 | 0 | 0 | 0
C[C@]12C=CC(=O)C=C1CC[C@@H]1[C@@H]2[C@@H](O)C[C@@]2(C)[C@H]1CC[C@]2(O)C(=O)CO [Prednisolone] | 0 | 0 | 0 | 0.65 | 0.7 | 0 | 0 | 0 | 0 | 0 | 0 | 0 | 0 | 0 | 0 | 0.1
CC(C)(C)c1cc(NC(=O)Nc2ccc(-c3cn4c(n3)sc3cc(OCCN5CCOCC5)ccc34)cc2)no1 [Quizartinib] | 0.7 | 0 | 1 | 3.85 | 0.3 | 0.7 | 0.6 | 0.5 | 0.3 | 0 | 0.8 | 0.45 | 0 | 0.6 | 0 | 2
Nc1cc(F)ccc1NC(=O)/C=C/c1cnn(C/C=C/c2ccccc2)c1 [RGFP966] | 2.9 | 1.4 | 0.9 | 2.9 | 2 | 0 | 2.5 | 0.6 | 4.6 | 3.2 | 2.9 | 0.6 | 0 | 3.5 | 1.9 | 3.1
Cc1cnc(NC(=O)Nc2cc(Br)c(C)cc2OC[C@@H]2CNCCO2)cn1 [Rabusertib] | 0 | 0 | 1.1 | 3.6 | 0.2 | 1 | 2 | 0 | 0 | 2 | 0 | 1.7 | 0 | 0.8 | 3.8 | 2.2
CC(C)(C)Cn1c(N)nc2ccc(-c3[nH]c(C(C)(C)C)nc3-c3ccc(F)cc3)nc21 [Ralimetinib] | 4.3 | 0.4 | 4.4 | 1.95 | 3.1 | 1.1 | 3.4 | 3.2 | 1.1 | 6.5 | 2.7 | 1.05 | 1.9 | 3.4 | 2.2 | 6.6
O=C(c1ccc(OCCN2CCCCC2)cc1)c1c(-c2ccc(O)cc2)sc2cc(O)ccc12 [Raloxifene] | 5.8 | 1.2 | 1.8 | 8.45 | 4.5 | 1.7 | 3.7 | 0.2 | 0 | 2.9 | 0.7 | 1.95 | 0.7 | 4.5 | 2.6 | 5.5
CNC(=O)c1cc(Oc2ccc(NC(=O)Nc3ccc(Cl)c(C(F)(F)F)c3)c(F)c2)ccn1 [Regorafenib] | 2 | 4 | 1.9 | 1.9 | 2.3 | 0.3 | 0.3 | 0.8 | 2.9 | 2.6 | 3.7 | 0 | 1.3 | 2.6 | 2.6 | 5.2
CN(C)C(=O)c1cc2cnc(Nc3ccc(N4CCNCC4)cn3)nc2n1C1CCCC1 [Ribociclib] | 1.8 | 0 | 0.3 | 1.8 | 0.6 | 0 | 0.8 | 0.6 | 1.7 | 0 | 0.5 | 0.05 | 0 | 4.4 | 0 | 3.1
O=C(CCCCCCNC(=O)c1cnc(N(c2ccccc2)c2ccccc2)nc1)NO [Rocilinostat] | 3 | 4.3 | 0.7 | 5.4 | 3.5 | 2.4 | 6.7 | 4.8 | 0.9 | 4.3 | 5.1 | 3.2 | 0.8 | 5.2 | 4.5 | 4.9
CNCc1ccc(-c2[nH]c3cc(F)cc4c3c2CCNC4=O)cc1 [Rucaparib] | 2.1 | 0 | 3.6 | 12.9 | 0 | 0.5 | 2.4 | 1.7 | 1.9 | 0 | 0 | 0 | 0 | 3.1 | 0.3 | 2.1
N#CC[C@H](C1CCCC1)n1cc(-c2ncnc3[nH]ccc23)cn1 [Ruxolitinib] | 0.3 | 0 | 0 | 1.6 | 0 | 0 | 0 | 0 | 0 | 0 | 0 | 0 | 0 | 0 | 0 | 0.5
